Measured values reported in paper PMC10330721, “Chemo-enzymatic synthesis and biological activity evaluation of propenylbenzene derivatives” (Frontiers in Microbiology, 2023).
≈ marks a conversion by molar mass, not a printed value. Like-named read-outs stand apart in the source and are kept apart here.

Legend:
[1] = system: C. albicans 595/20; assay: Fungistatic activity assay, broth microdilution; format: cell-based; conditions: Candida albicans, 595/20, 24 h
Description: (§1) Fungistatic activity was determined using Candida albicans ATCC 90028 from the American Type Culture Collection (ATCC, Manassas, VA, United States), and clinical isolates, C. albicans 636/20, C. albicans 595/20, and C. albicans 38 obtained from Wrocław Medical University, Wrocław, Poland.
(§2) All compounds were tested for biological activity against C. albicans ATTC 90028, C. albicans 636/20, C. albicans 595/20, and C. albicans 38 using the broth microdilution method. YPD medium (20 g glucose, 20 g Bacto Peptone, 10 g yeast extract, and 1 L of distilled water, pH 6.5) was used for the tests. The compound solutions were prepared in DMSO and diluted in YPD to obtain final concentrations in the range of 10–250 μg/mL. One hundred microlitres of each solution was pipetted into the wells of a 96-well microtiter plate. The inoculum was standardized to 0.5 McFarland standard and then diluted to obtain a final suspension with a cell density of 0.5–2.5 × 10^3 CFU/mL. The inoculum size was 100 μL. The positive control comprised DMSO added in the same concentration as the tested compounds in the inoculum, whereas the negative control consisted of DMSO diluted in the broth without the addition of inoculum. The microtiter plates were incubated in a Biosan PST-60 HL Plate Shaker-Thermostat (Riga, Latvia) at 35°C under shaking at 1,000 rpm for 24 h.

[2] = system: C. albicans strains; assay: Fungistatic activity assay, broth microdilution, values given over several strains; format: cell-based, Candida albicans
Description: as §1, §2

[3] = Haemolytic activity assay; format: cell-based; conditions: human red blood cells (RBCs) from healthy donors, 37°C, read-out: Percentage of haemolysis
Description: This test is based on comparison of the cytotoxicity of all tested compounds in human red blood cells (RBCs) with that in a control group. RBCs for this method were obtained from a blood center from examined and healthy donors. The compounds were tested at 10, 20, 40, 60, 80, and 100 μM concentrations. The control sample contained only ethanol in the same volume as the test samples. […] The samples were incubated at 37°C for 1 h. Then, the absorbance at 540 nm was measured using a UV–Vis spectrophotometer (Specord 40, Analytik Jena, Jena, Germany). The haemolytic activity of the compounds was determined as the ratio of the absorbance of haemoglobin in the test samples to that in completely haemolyzed cells multiplied by 100%.

[4] = system: RBCs membrane; assay: Fluorescence spectroscopy of the RBCs membrane (DPH probe anisotropy); format: cell-based, human; conditions: for Fluorescence anisotropy of the DPH probe: membranes of RBCs, 37 °C; for Change in DPH anisotropy / RBCs membrane fluidity (in words): RBCs, 20, 60 and 100 μM
Description: Using the DPH probe, the anisotropy values of cell membranes of RBCs modified with the test compounds were measured. RBCs for this analysis were prepared according to the method described in subsection 2.5.3. Then, the DPH probe was added to RBCs with a haematocrit of 0.2%. The final concentration of the probe in the sample was 1.3 μM. The mixture was incubated protected from light at 37°C for 30 min. Then, the compounds dissolved in ethanol were added. The compounds were tested at 20, 60, and 100 μM concentrations. Samples with compounds and control samples with alcohol of the appropriate concentration were incubated at 37°C for 1 h. Measurements in triplicate were made in quartz cuvettes using a CARY Eclipse fluorimeter (Varian, San Diego, CA, United States) at 37°C. The excitation wavelength for the DPH probe is λexc = 360 nm and the emission wavelength is λem = 426 nm.

[5] = system: HepG2 cells; assay: Resazurin-based viability assay; format: cell-based, human; conditions: for Effect on HepG2 proliferation / viability (in words): 24 h, 1, 50 and 200 μg/mL
Description: (§3) The human HepG2 and Caco-2 cell lines were obtained from the American Type Culture Collection (HB-8065™ and HTB-37™) and the MG-63 cell line was obtained from the European Collection of Authenticated Cell Cultures (Merck, Poznań, Poland). HepG2 cells were cultured in Dulbecco’s modified Eagle’s Medium - low glucose (Merck) supplemented with 10% foetal bovine serum (FBS) (Merck). Caco-2 cells were cultured in Dulbecco’s modified Eagle’s medium - high glucose (Merck) supplemented with 10% FBS, 2% HEPES buffer (Thermo Fisher Scientific, Warszawa, Poland), 1% Penicillin–Streptomycin-Amphotericin B Solution (100×, Merck), 1% MEM solution (100×, Thermo Fisher Scientific), and 1% Gentamycin Solution (10 mg/mL, Merck). MG-63 cells were cultured in Minimum Essential Medium (Merck) supplemented with 10% FBS. All cells were cultured in an atmosphere of 5% CO2 at 37°C.
(§4) HepG2, Caco-2, and […] were seeded in 96-well plates at 20,000 cells per well, and MG-63 cells at 10,000 cells per well, as described previously ([Marycz et al., 2012]; [Kornicka et al., 2017]). The tested compounds were dissolved in ethanol at 10 mg/mL. The concentrations were then adjusted to 1, 50, and 200 μg/mL in culture medium. Four controls were prepared: no ethanol added, and 0.01, 0.5, and 2% EtOH. The cells were treated with the compounds for 24 h. Then, cell viability was evaluated using the resazurin-based assay kit (TOX8), as described previously ([Grzesiak et al., 2011]; [Marycz et al., 2018]). The culture medium was replaced with medium containing 10% resazurin dye. The cells were incubated at 37°C in an atmosphere of 5% CO2 for 2 h. Absorbance levels were measured spectrophotometrically (Epoch) at a wavelengths of 600 nm for resazurin and 690 nm as a reference.

[6] = system: MG63 cells; assay: Resazurin-based viability assay; format: cell-based, human; conditions: for Effect on MG63 proliferation / viability (in words): 24 h, 1, 50 and 200 μg/mL
Description: as §3, with “HepG2” for “The human HepG2 and Caco-2 cell lines were obtained from the American Type Culture Collection (HB-8065™ and HTB-37™) and the MG-63 cell line was obtained from the European Collection of Authenticated Cell Cultures (Merck, Poznań, Poland). HepG2”
The tested compounds were dissolved in ethanol at 10 mg/mL. The concentrations were then adjusted to 1, 50, and 200 μg/mL in culture medium. Four controls were prepared: no ethanol added, and 0.01, 0.5, and 2% EtOH. The cells were treated with the compounds for 24 h. […] The culture medium was replaced with medium containing 10% resazurin dye. The cells were incubated at 37°C in an atmosphere of 5% CO2 for 2 h. Absorbance levels were measured spectrophotometrically (Epoch) at a wavelengths of 600 nm for resazurin and 690 nm as a reference.

[7] = system: C. albicans ATTC18804; parameters: method as in Kubo et al., 1993; conditions: C. albicans ATTC18804 ref Kubo et al., 1993; cited from earlier work
[8] = system: human colon carcinoma Caco-2 cell line; conditions: ref Lea et al., 2016; Padhy et al., 2022; cited from earlier work
[9] = system: C. albicans ATTC 90028; assay: Fungistatic activity assay, broth microdilution; format: cell-based; conditions: Candida albicans, ATTC90028, 24 h
Description: as §1, §2

[10] = system: C. albicans 38; assay: Fungistatic activity assay, broth microdilution; format: cell-based, Candida albicans
Description: as §1, §2

[11] = system: Caco-2 cells; assay: Resazurin-based viability assay; format: cell-based, human; conditions: 24 h, 50 μg/mL
Description: as §3, §4

[12] = system: human hepatocellular carcinoma HepG2 cells; parameters: method as in Yoo et al., 2005; Song et al., 2014, 2020; conditions: ref Yoo et al., 2005; Song et al., 2014, 2020; cited from earlier work
[13] = cited from earlier work

Compound | hemolysis at 1 h, 10 µM [3] [%] | hemolysis at 1 h, 20 µM [3] [%] | hemolysis at 1 h, 40 µM [3] [%] | hemolysis at 1 h, 60 µM [3] [%] | hemolysis at 1 h, 80 µM [3] [%] | hemolysis at 1 h, 100 µM [3] [%] | Fluorescence anisotropy of the DPH probe ([4]; 20 µM) | Fluorescence anisotropy of the DPH probe ([4]; 60 µM) | Fluorescence anisotropy of the DPH probe ([4]; 100 µM) | Effect on MG63 proliferation / viability (in words) [6] | other results
C/C=C/c1ccc2c(c1)OCO2 [1a, isosafrole] | 2.41 ± 0.481 | 1.54 ± 0.202 | 2.18 ± 0.153 | 2.4 ± 0.446 | 2.585 ± 0.014 | 2.55 ± 0.007 | 0.262 ± 0.016 | 0.264 ± 0.030 | 0.237 ± 0.041 | promoted MGC63 proliferation | MIC50 [1]: 65 µg/mL (≈ 401 µM); MIC50 ([2]; Candida albicans, read-out: MIC50 (over all tested strains)): < 100 µg/mL; Effect on HepG2 proliferation / viability (in words) [5]: more strongly significantly suppressed the viability; MIC [7]: 100 µg/mL (≈ 617 µM); Apoptosis in Caco-2 cell line (in words) [8]: induced apoptosis
CC=Cc1ccccc1 [2a, prop-1-en-1-yl benzene] |  |  |  |  |  |  | 0.262 ± 0.020 | 0.268 ± 0.023 | 0.267± 0.006 | promoted MGC63 proliferation | MIC50 [9]: > 250 µg/mL; MIC50 ([10]; Candida albicans, 38, 24 h): > 250 µg/mL; Effect on HepG2 proliferation / viability (in words) [5]: more strongly significantly suppressed the viability
CC(O)C(=O)c1ccccc1 (stereo not shown) [2c, 2-hydroxy-1-phenylpropan-1-one] | 1.16 ± 0.027 | 1.86 ± 0.697 | 1.42 ± 0.55 | 1.74 ± 0.59 | 1.94 ± 0.154 | 2.46 ± 0.322 | 0.236 ± 0.026 | 0.240 ± 0.019 | 0.238 ± 0.002 | promoted MGC63 proliferation | MIC50 [9]: > 250 µg/mL; MIC50 ([10]; Candida albicans, 38, 24 h): > 250 µg/mL; Change in DPH anisotropy / RBCs membrane fluidity (in words) [4]: a decrease in anisotropy
COc1ccc(C(=O)C(C)O)cc1 (stereo not shown) [3c, 2-hydroxy-1-(4-methoxyphenyl)propan-1-one] | 1.83 ± 0.355 | 1.65 ± 0.509 | 1.73 ± 0.174 | 2.33 ± 0.436 | 2.15 ± 0.161 | 1.53 ± 0.134 | 0.239 ± 0.006 | 0.249 ± 0.007 | 0.244 ± 0.003 | promoted MGC63 proliferation | MIC50 ([10]; Candida albicans, C. albicans 38, 24 h, 35°C, tested 10–250 μg/mL, read-out: MIC50): 61 µg/mL (≈ 339 µM); Change in DPH anisotropy / RBCs membrane fluidity (in words) [4]: a decrease in anisotropy; Effect on Caco-2 proliferative activity (in words) [11]: induced the proliferative activity; Effect on HepG2 proliferative activity (in words) ([5]; 24 h, 50 μg/mL): induced the proliferative activity; Effect on MG63 proliferative activity / viability (in words) ([6]; 24 h, 50 μg/mL): induced the proliferative activity
C=CCc1ccc(O)c(OC)c1 [eugenol] |  |  |  |  |  |  |  |  |  |  | Effect on growth of HepG2 cells (in words) [12]: inhibited the growth; Apoptosis in Caco-2 cell line (in words) [8]: induced apoptosis
C=CCc1ccc2c(c1)OCO2 [safrole] |  |  |  |  |  |  |  |  |  |  | IC50 antioxidant activity ([13]; ref Eid and Hawash (2021)): 50.28 µg/mL (≈ 310 µM); Effect on growth of HepG2 cells (in words) [12]: inhibited the growth
isoeugenol [5a] |  |  |  |  |  |  | 0.259 ± 0.009 | 0.272 ± 0.085 | 0.256 ± 0.023 | promoted MGC63 proliferation | MIC50 (over all tested strains) ([2]; C. albicans 636/20, 595/20, 38 and ATTC90028): 52 to 88 µg/mL; MIC [7]: 400 µg/mL; antioxidant activity ([13]; ref Siva et al. (2019)): 86%
